What follows are molecules tested against T1, GluA1o-γ8 (Homo sapiens, UniProt P42261+Q8WXS5) (assay: Calcium flux assay (FLIPR), inhibition of glutamate response of GluA1o-γ8 channel in HEK293 cells). Conditions: HEK293 cells stably expressing GRIA1o-CACNG8 fusion; 15 μM glutamate; pIC50 = negative log of the IC50 in molar.
T1 construct: expressed in transfected cells
T1 sequence (P42261+Q8WXS5 fused): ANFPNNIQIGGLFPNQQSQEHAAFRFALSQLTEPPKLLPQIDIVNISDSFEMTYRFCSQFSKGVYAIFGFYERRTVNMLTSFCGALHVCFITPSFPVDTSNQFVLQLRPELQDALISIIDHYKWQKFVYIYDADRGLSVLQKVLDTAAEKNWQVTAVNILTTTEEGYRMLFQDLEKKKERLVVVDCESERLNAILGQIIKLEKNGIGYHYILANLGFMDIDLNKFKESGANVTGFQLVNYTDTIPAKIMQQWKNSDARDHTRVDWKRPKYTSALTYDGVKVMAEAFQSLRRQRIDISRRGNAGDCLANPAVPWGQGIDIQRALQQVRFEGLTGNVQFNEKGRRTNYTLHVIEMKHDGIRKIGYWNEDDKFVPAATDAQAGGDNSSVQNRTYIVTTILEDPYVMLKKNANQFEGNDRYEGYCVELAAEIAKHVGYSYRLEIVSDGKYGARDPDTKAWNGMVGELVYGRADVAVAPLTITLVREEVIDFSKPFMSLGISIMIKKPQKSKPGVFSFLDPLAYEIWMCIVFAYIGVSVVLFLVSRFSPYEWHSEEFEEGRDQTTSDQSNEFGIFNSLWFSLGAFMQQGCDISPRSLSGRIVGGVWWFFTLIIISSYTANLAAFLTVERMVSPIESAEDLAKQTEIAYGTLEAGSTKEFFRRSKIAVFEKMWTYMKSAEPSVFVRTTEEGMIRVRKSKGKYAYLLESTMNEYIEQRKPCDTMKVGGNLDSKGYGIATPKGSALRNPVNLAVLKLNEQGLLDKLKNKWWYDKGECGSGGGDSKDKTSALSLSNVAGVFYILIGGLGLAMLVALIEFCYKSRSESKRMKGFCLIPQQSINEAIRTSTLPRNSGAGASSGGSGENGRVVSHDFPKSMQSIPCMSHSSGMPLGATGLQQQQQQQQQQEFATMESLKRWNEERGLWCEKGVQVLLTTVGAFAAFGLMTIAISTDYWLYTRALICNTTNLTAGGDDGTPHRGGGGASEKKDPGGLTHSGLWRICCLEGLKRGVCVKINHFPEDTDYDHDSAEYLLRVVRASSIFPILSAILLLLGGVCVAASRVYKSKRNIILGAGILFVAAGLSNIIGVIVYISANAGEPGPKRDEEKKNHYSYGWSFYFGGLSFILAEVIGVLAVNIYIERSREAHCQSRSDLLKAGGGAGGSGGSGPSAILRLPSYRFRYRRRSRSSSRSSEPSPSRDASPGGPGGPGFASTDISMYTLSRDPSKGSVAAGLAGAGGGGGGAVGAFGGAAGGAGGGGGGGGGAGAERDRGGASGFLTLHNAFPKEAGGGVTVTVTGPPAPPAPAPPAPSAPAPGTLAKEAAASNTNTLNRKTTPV
Type: cell-based
Source text: This assay was used to test compounds for their ability to inhibit TARP γ8 dependent AMPA receptor activity. The AMPA receptor is a non-selective cation channel activated by glutamate. Ionotropic glutamate receptors normally desensitize too rapidly to allow detectable calcium influx in a FLIPR assay (Strange et al. (2006). “Functional characterisation of homomeric ionotropic glutamate receptors GluR1-GluR6 in a fluorescence-based high throughput screening assay.” Comb Chem High Throughput Screen 9(2): 147-158). But, this desensitization is incomplete, and a substantial steady-state current remains in the sustained presence of glutamate (Cho et al. (2007). “Two families of TARP isoforms that have distinct effects on the kinetic properties of AMPA receptors and synaptic currents.” Neuron 55(6): 890-904).
An in vitro assay was used to determine the potency of test compounds as inhibitors of the glutamate response of the channel formed by GluA1o-γ8. To ensure a 1:1 stoichiometry of GluA1o and γ8 subunits in the expressed channel, a fusion of the cDNAs for GRIA1o and CACNG8 was used. Following Shi et al (2009) “The stoichiometry of AMPA receptors and TARPs varies by neuronal cell type.” Neuron 62(5): 633-640), the C-terminus of the cDNA for GRIA1o was fused to the N-terminus of the cDNA for γ8. The linker sequence was QQQQQQQQQQEFAT. Channels expressed with this construct appear to have similar properties to channels formed by co-expression of GRIA1o with an excess of CACNG8 (Shi et al. 2009). A clonal cell line in HEK293 cells stably expressing this construct, with a geneticin selection marker, was generated for use in this assay. Cell expressing the GRIA1o-CACNG8 fusion construct were grown in a monolayer in 96- or 384-well microtiter plates. They were washed with assay buffer (135 mM NaCl, 4 mM KCl, 3 mM CaCl2, 1 mM MgCl2, 5 mM glucose, 10 mM HEPES, pH 7.4, 300 mOs) using a Biotek EL405 plate washer. The cells were then loaded with a calcium-sensitive dye (Calcium-5 or Calcium-6, Molecular Devices) and the test compounds at a range of concentrations. Calcium flux following the addition of 15 μM glutamate was monitored using a Molecular Devices FLIPR Tetra.
The fluorescence in each well was normalized to the fluorescence of negative and positive control wells. The negative control wells had no added compounds, and the positive control wells had been incubated with 10 μM CP465022 (a non-subtype-selective AMPA receptor antagonist) (Lazzaro et al. (2002). “Functional characterization of CP-465,022, a selective, noncompetitive AMPA receptor antagonist.” Neuropharmacology 42(2): 143-153). The responses to glutamate as functions of the test compound concentrations were fitted to a four-parameter logistic function. The fitted parameter corresponding to the midpoint was taken to be the potency of inhibition of the compound. The data in Table 4 below illustrates the observed potentcy for the compounds described herein. pIC50 refers to the negative log of the IC50 in molar.
`Cc1cccc(C)c1-c1ccc2c(c1)CC(=O)N2` [Example 1, 5-(2,6-Dimethylphenyl)indolin-2-one] was tested, and the “GluR1-γ8 pIC50” value was 6.4.
`O=C1Cc2cc(-c3c(Cl)cccc3OC(F)(F)F)ccc2N1` [Example 5, 5-[2-Chloro-6-(trifluoromethoxy)phenyl]indolin-2-one] was tested, and the “GluR1-γ8 pIC50” value was 7.8.
With `Cc1cc(-c2c(Cl)cccc2OC(F)(F)F)cc2c1NC(=O)C2` [Example 127, 5-[2-Chloro-6-(trifluoromethoxy)phenyl]-7-methyl-indolin-2-one] the “GluR1-γ8 pIC50” value was 9.7.
For `Cc1cc(-c2c(Cl)cncc2OC(F)F)cc2c1NC(=O)C2` [Example 146, 5-(3-Chloro-5-(difluoromethoxy)pyridin-4-yl)-7-methylindolin-2-one], the “GluR1-γ8 pIC50” value was 8.1.

Same assay, conditions: HEK293 cells stably expressing GRIA1o-CACNG8 fusion; 15 μM glutamate; pIC50 = negative log of the IC50 in molar; read-out: GluR1-γ8 pIC50 (converted)
For `O=C1Cc2cc(-c3c(Cl)cccc3Br)ccc2N1` [Example 2, 5-(2-Bromo-6-chlorophenyl)indolin-2-one], the IC50 was 25.1 nM.
For `Cc1cccc(Cl)c1-c1ccc2c(c1)CC(=O)N2` [Example 3, 5-(2-Chloro-6-methyl-phenyl)indolin-2-one], the IC50 was 100 nM.
`O=C1Cc2cc(-c3c(Cl)cccc3Cl)ccc2N1` [Example 4, 5-(2,6-Dichlorophenyl)indolin-2-one] showed an IC50 of 31.6 nM.
Molecule `N#CCc1cccc(Cl)c1-c1ccc2c(c1)CC(=O)N2` [Example 6, 2-[3-Chloro-2-(2-oxoindolin-5-yl)phenyl]acetonitrile] has an IC50 of 31.6 nM.
In the case of `CC(C)(C#N)c1cccc(Cl)c1-c1ccc2c(c1)CC(=O)N2` [Example 81, 2-[3-Chloro-2-(2-oxoindolin-5-yl)phenyl]-2-methyl-propanenitrile], the IC50 is reported as 79.4 nM.
`N#Cc1ccc(Cl)c(-c2ccc3c(c2)CC(=O)N3)c1OC(F)(F)F` [Example 115, 4-Chloro-3-(2-oxoindolin-5-yl)-2-(trifluoromethoxy)benzonitrile] showed an IC50 of 12.6 nM.
`O=C1Cc2cc(-c3c(Cl)cccc3OC(F)(F)F)cc(F)c2N1` [Example 117, 5-(2-Chloro-6-(trifluoromethoxy)phenyl)-7-fluoroindolin-2-one] was tested, and the IC50 was 3.16 nM.
`O=C1Cc2cc(-c3c(Cl)cccc3OC(F)F)cc(F)c2N1` [Example 118, 5-(2-Chloro-6-(difluoromethoxy)phenyl)-7-fluoroindolin-2-one] showed an IC50 of 15.8 nM.
`CC(C)(C#N)c1cccc(Cl)c1-c1cc(F)c2c(c1)CC(=O)N2` [Example 119, 2-(3-Chloro-2-(7-fluoro-2-oxoindolin-5-yl)phenyl)-2-methylpropanenitrile] showed an IC50 of 25.1 nM.
For `COC1CCN(c2cccc(-c3cc(F)c4c(c3)CC(=O)N4)c2Cl)CC1` [Example 121, 5-(2-Chloro-3-(4-methoxypiperidin-1-yl)phenyl)-7-fluoroindolin-2-one], the IC50 was over 10000 nM.
Molecule `Cc1cccc(OC(F)F)c1-c1cc(F)c2c(c1)CC(=O)N2` [Example 122, 5-[2-(Difluoromethoxy)-6-methyl-phenyl]-7-fluoro-indolin-2-one] has an IC50 of 15800 nM.
`COc1cccc(OC(F)F)c1-c1cc(F)c2c(c1)CC(=O)N2` [Example 123, 5-[2-(Difluoromethoxy)-6-methoxy-phenyl]-7-fluoro-indolin-2-one] was tested, and the IC50 was over 10000 nM.
Molecule `N#Cc1ccc(OC(F)(F)F)c(-c2cc(F)c3c(c2)CC(=O)N3)c1Cl` [Example 124, 2-Chloro-3-(7-fluoro-2-oxo-indolin-5-yl)-4-(trifluoromethoxy)benzonitrile] has an IC50 of 12.6 nM.
Work on `Cc1cncc(C)c1-c1cc(F)c2c(c1)CC(=O)N2` [Example 125, 5-(3,5-Dimethyl-4-pyridyl)-7-fluoro-indolin-2-one] yielded an IC50 of 251 nM.
In the case of `O=C1Cc2cc(-c3c(Cl)cncc3Cl)cc(F)c2N1` [Example 126, 5-(3,5-Dichloro-4-pyridyl)-7-fluoro-indolin-2-one], the IC50 is reported as 316 nM.
With `Cc1cc(-c2c(Cl)cccc2OC(F)F)cc2c1NC(=O)C2` [Example 128, 5-[2-Chloro-6-(difluoromethoxy)phenyl]-7-methyl-indolin-2-one] the IC50 was 1 nM.
`Cc1cc(-c2c(C)cccc2OC(F)F)cc2c1NC(=O)C2` [Example 129, 5-[2-(Difluoromethoxy)-6-methyl-phenyl]-7-methyl-indolin-2-one] was tested, and the IC50 was 3.16 nM.
In the case of `COc1cccc(OC(F)F)c1-c1cc(C)c2c(c1)CC(=O)N2` [Example 130, 5-[2-(Difluoromethoxy)-6-methoxy-phenyl]-7-methyl-indolin-2-one], the IC50 is reported as 12.6 nM.
In the case of `Cc1cc(-c2c(F)cccc2OC(F)F)cc2c1NC(=O)C2` [Example 131, 5-[2-(Difluoromethoxy)-6-fluoro-phenyl]-7-methyl-indolin-2-one], the IC50 is reported as 5.01 nM.
Work on `Cc1cc(-c2c(Cl)cccc2C(C)(C)C#N)cc2c1NC(=O)C2` [Example 132, 2-[3-Chloro-2-(7-methyl-2-oxo-indolin-5-yl)phenyl]-2-methyl-propanenitrile] yielded an IC50 of 0.501 nM.
`Cc1cc(-c2c(Cl)ccc(C#N)c2OC(F)(F)F)cc2c1NC(=O)C2` [Example 133, 4-Chloro-3-(7-methyl-2-oxoindolin-5-yl)-2-(trifluoromethoxy)benzonitrile] was tested, and the IC50 was 0.126 nM.
`Cc1cc(-c2cccc(C#N)c2C)cc2c1NC(=O)C2` [Example 134, 2-Methyl-3-(7-methyl-2-oxo-indolin-5-yl)benzonitrile] showed an IC50 of 100 nM.
`Cc1cc(-c2c(C)cccc2Cl)cc2c1NC(=O)C2` [Example 135, 5-(2-Chloro-6-methyl-phenyl)-7-methyl-indolin-2-one] was tested, and the IC50 was 0.398 nM.
`Cc1cc(-c2c(C)cccc2F)cc2c1NC(=O)C2` [Example 136, 5-(2-Fluoro-6-methyl-phenyl)-7-methyl-indolin-2-one] was tested, and the IC50 was 3.16 nM.
`Cc1cc(-c2c(C)cccc2C(F)(F)F)cc2c1NC(=O)C2` [Example 137, 7-Methyl-5-[2-methyl-6-(trifluoromethyl)phenyl]indolin-2-one] was tested, and the IC50 was 1.26 nM.
Molecule `Cc1cc(-c2c(C)cccc2C#N)cc2c1NC(=O)C2` [Example 138, 3-Methyl-2-(7-methyl-2-oxo-indolin-5-yl)benzonitrile] has an IC50 of 2.51 nM.
Molecule `COc1cccc(F)c1-c1cc(C)c2c(c1)CC(=O)N2` [Example 139, 5-(2-Fluoro-6-methoxy-phenyl)-7-methyl-indolin-2-one] has an IC50 of 126 nM.
In the case of `Cc1cc(-c2c(F)cccc2F)cc2c1NC(=O)C2` [Example 140, 5-(2,6-Difluorophenyl)-7-methyl-indolin-2-one], the IC50 is reported as 316 nM.
Molecule `Cc1cc(-c2c(F)cccc2Cl)cc2c1NC(=O)C2` [Example 141, 5-(2-Chloro-6-fluoro-phenyl)-7-methyl-indolin-2-one] has an IC50 of 2 nM.
In the case of `Cc1cc(-c2c(C)cccc2C)cc2c1NC(=O)C2` [Example 142, 5-(2,6-Dimethylphenyl)-7-methyl-indolin-2-one], the IC50 is reported as 2.51 nM.
`Cc1cc(-c2c(Cl)cccc2C#N)cc2c1NC(=O)C2` [Example 143, 3-Chloro-2-(7-methyl-2-oxoindolin-5-yl)benzonitrile] was tested, and the IC50 was 5.01 nM.
`Cc1cc(-c2c(Cl)cnc(C(F)(F)F)c2Cl)cc2c1NC(=O)C2` [Example 144, 5-(3,5-Dichloro-2-(trifluoromethyl)pyridin-4-yl)-7-methylindolin-2-one] was tested, and the IC50 was 12.6 nM.
With `Cc1cc(-c2c(Cl)cncc2OC(F)(F)F)cc2c1NC(=O)C2` [Example 145, 5-[3-Chloro-5-(trifluoromethoxy)-4-pyridyl]-7-methyl-indolin-2-one] the IC50 was 3.16 nM.
`Cc1cc(-c2c(Cl)cncc2Cl)cc2c1NC(=O)C2` [Example 147, 5-(3,5-Dichloro-4-pyridyl)-7-methyl-indolin-2-one] was tested, and the IC50 was 7.94 nM.
Work on `Cc1cc(-c2c(C)cncc2C)cc2c1NC(=O)C2` [Example 148, 5-(3,5-Dimethyl-4-pyridyl)-7-methyl-indolin-2-one] yielded an IC50 of 10 nM.
Work on `Cc1cc(-c2c(C)ccnc2Cl)cc2c1NC(=O)C2` [Example 149, 5-(2-Chloro-4-methyl-3-pyridyl)-7-methyl-indolin-2-one] yielded an IC50 of 15.8 nM.
For `COc1nccc(C)c1-c1cc(C)c2c(c1)CC(=O)N2` [Example 150, 5-(2-Methoxy-4-methyl-3-pyridyl)-7-methyl-indolin-2-one], the IC50 was 31.6 nM.

Source: patent US10604484B2, “Indolone compounds and their use as AMPA receptor modulators” (Janssen Pharmaceutica NV, priority 2015, dated 2020)
